Experimental data published in PubChem BioAssay AID330 (DTP/NCI, 2004).
Values joined by “and” are separate entries in the source; they are usually repeats but may differ in a detail not shown here. Identical values can stand only once. Toxic doses and inconclusive results are not listed. Rule for the calls: active = survival T/C of 150% or more; inactive = T/C below 125% in these data.

Tested on: P388 leukemia ip, CD2F1 mice, survival T/C
Assay: NCI In Vivo Anticancer Drug Screen. Data for tumor model P388 Leukemia (intraperitoneal) in CD2F1 (CDF1) mice
Conditions: endpoint: median survival time, higher = longer survival
Method in brief: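 Mice carrying the transplanted tumor received test compound or vehicle. Survival was recorded in each group, and the value is the treated-group measurement divided by that of the vehicle-treated control group.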

[1] = dose: 50.0 mg/kg/injection, schedule: Q01DX009 (ip), vehicle: saline
[2] = dose: 100.0 mg/kg/injection, schedule: Q01DX009 (ip), vehicle: saline
[3] = dose: 200.0 mg/kg/injection, schedule: Q01DX009 (ip), vehicle: saline
[4] = dose: 60.0 mg/kg/injection, schedule: Q01DX005 (ip), vehicle: Klucel (hydroxypropylcellulose) (HPC)
[5] = dose: 60.0 mg/kg/injection, schedule: Q01DX005 (ip), vehicle: saline with Tween-80
[6] = dose: 120.0 mg/kg/injection, schedule: Q01DX005 (ip), vehicle: saline with Tween-80
[7] = dose: 50.0 mg/kg/injection, schedule: Q01DX005 (ip), vehicle: saline with Tween-80
[8] = dose: 100.0 mg/kg/injection, schedule: Q01DX005 (ip), vehicle: saline with Tween-80
[9] = dose: 200.0 mg/kg/injection, schedule: Q01DX005 (ip), vehicle: saline with Tween-80
[10] = dose: 50.0 mg/kg/injection, schedule: Q01DX005 (ip), vehicle: Klucel (hydroxypropylcellulose) (HPC)
[11] = dose: 100.0 mg/kg/injection, schedule: Q01DX005 (ip), vehicle: Klucel (hydroxypropylcellulose) (HPC)
[12] = dose: 200.0 mg/kg/injection, schedule: Q01DX005 (ip), vehicle: Klucel (hydroxypropylcellulose) (HPC)

Measured: T/C

O=C(Nc1ccc(Cl)cc1C(F)(F)F)OCCCc1ccncc1
inactive: [1] 98 % of control | [2] 91 % of control | [3] 91 % of control

COc1ccc2c(C[N+](C)(C)CCC#N)cc(=O)oc2c1
inactive: dose: 50.0 mg/kg/injection, schedule: Q04DX002 (ip), vehicle: saline 100 % of control | dose: 100.0 mg/kg/injection, schedule: Q04DX002 (ip), vehicle: saline 100 % of control | dose: 200.0 mg/kg/injection, schedule: Q04DX002 (ip), vehicle: saline 104 % of control

CCN1CCC(O)(/C=C/c2ccccc2)C(C(=O)/C=C/c2ccccc2)C1 (configuration not stated)
inactive: [4] 108 % of control | dose: 120.0 mg/kg/injection, schedule: Q01DX005 (ip), vehicle: Klucel (hydroxypropylcellulose) (HPC) 111 % of control

Cc1cn(CCCn2cnc3c(=O)[nH]cnc32)c(=O)[nH]c1=O
inactive: [5] 92 % of control | [6] 101 % of control | dose: 240.0 mg/kg/injection, schedule: Q01DX005 (ip), vehicle: saline with Tween-80 88 % of control

CC(=O)NNC(=O)C(Cl)Cl
inactive: dose: 12.5 mg/kg/injection, schedule: Q01DX009 (ip), vehicle: saline 92 % of control | dose: 25.0 mg/kg/injection, schedule: Q01DX009 (ip), vehicle: saline 89 % of control | [1] 101 % of control and 90 % of control

COc1ccc(OC(=O)/C=C/c2ccccc2)cc1
inactive: dose: 85.0 mg/kg/injection, schedule: Q04DX002 (ip), vehicle: saline with Tween-80 102 % of control

CCC#CCC1(CC#CCC)CC1C (configuration not stated)
inactive: [7] 100 % of control | [8] 99 % of control | [9] 107 % of control

CCOC(=O)CCC(C)(C#N)C(C#N)C(=O)OCC (configuration not stated)
inactive: dose: 100.0 mg/kg/injection, schedule: Q01DX009 (ip), vehicle: saline with Tween-80 100 % of control | dose: 100.0 mg/kg/injection, schedule: Q04DX003 (ip), vehicle: saline with Tween-80 100 % of control | dose: 200.0 mg/kg/injection, schedule: Q04DX003 (ip), vehicle: saline with Tween-80 100 % of control | dose: 400.0 mg/kg/injection, schedule: Q01DX009 (ip), vehicle: saline with Tween-80 100 % of control | dose: 400.0 mg/kg/injection, schedule: Q04DX003 (ip), vehicle: saline with Tween-80 100 % of control

COc1ccc(COc2ccc(C(=O)CCN3CCOCC3)cc2)cc1
inactive: [10] 99 % of control | [11] 99 % of control | [12] 99 % of control

CC(C)(C)COC(=O)NC1CCC2CCCCC2C1 (configuration not stated)
inactive: [1] 88 % of control | [2] 97 % of control | [3] 101 % of control

CC1(C)C(=O)C(O)=Cc2ccccc21
inactive: [10] 109 % of control | [11] 107 % of control | [12] 101 % of control

CC1=CCC2(C)C(=O)CC3(C)C(CCC4C5(C)CCC(=O)C(C)(C)C5CCC43C)C2C1C (configuration not stated)
inactive: dose: 1.75 mg/kg/injection, schedule: Q01DX009 (ip), vehicle: saline 103 % of control and 121 % of control | dose: 3.5 mg/kg/injection, schedule: Q01DX009 (ip), vehicle: saline 99 % of control and 114 % of control | dose: 7.0 mg/kg/injection, schedule: Q01DX009 (ip), vehicle: saline 110 % of control and 118 % of control

CC[N+](C)(CC)CCOC(C)=O
inactive: dose: 6.25 mg/kg/injection, schedule: Q01DX001 (ip), vehicle: saline 100 % of control | dose: 12.5 mg/kg/injection, schedule: Q01DX001 (ip), vehicle: saline 100 % of control | dose: 25.0 mg/kg/injection, schedule: Q01DX001 (ip), vehicle: saline with Tween-80 101 % of control | dose: 25.0 mg/kg/injection, schedule: Q01DX001 (ip), vehicle: saline 98 % of control

Cc1cc2nc(C/C(=N/O)c3ccncc3)c(C/C(=N/O)c3ccncc3)nc2cc1C
inactive: [5] 93 % of control | [6] 91 % of control

CCCC1CC[N-]CC1.CCCC1CC[N-]CC1.[Cl][Pt+2]([Cl])([Cl])[Cl]
inactive: dose: 1.0 mg/kg/injection, schedule: Q01DX009 (ip), vehicle: saline with Tween-80 90 % of control | dose: 2.0 mg/kg/injection, schedule: Q01DX009 (ip), vehicle: saline with Tween-80 95 % of control | dose: 3.75 mg/kg/injection, schedule: Q01DX009 (ip), vehicle: saline with Tween-80 100 % of control | dose: 4.0 mg/kg/injection, schedule: Q01DX009 (ip), vehicle: saline with Tween-80 100 % of control | dose: 11.0 mg/kg/injection, schedule: Q01DX009 (ip), vehicle: saline with Tween-80 118 % of control | dose: 25.0 mg/kg/injection, schedule: Q04DX003 (ip), vehicle: saline with Tween-80 110 % of control | dose: 37.5 mg/kg/injection, schedule: Q01DX009 (ip), vehicle: saline with Tween-80 118 % of control | dose: 50.0 mg/kg/injection, schedule: Q04DX003 (ip), vehicle: saline with Tween-80 120 % of control | dose: 75.0 mg/kg/injection, schedule: Q04DX003 (ip), vehicle: saline with Tween-80 95 % of control

COc1ccc(CN2CC(=O)N3Cc4ccccc4CN3C(=O)C2)cc1
inactive: [7] 103 % of control | [8] 103 % of control | [9] 103 % of control

O=[N+]([O-])c1ccc([S][Sn]([c]2ccccc2)([c]2ccccc2)[c]2ccccc2)cc1
inactive: dose: 50.0 mg/kg/injection, schedule: Q04DX003 (ip), vehicle: saline 101 % of control and 92 % of control | dose: 100.0 mg/kg/injection, schedule: Q04DX003 (ip), vehicle: saline 98 % of control and 104 % of control and 109 % of control | dose: 200.0 mg/kg/injection, schedule: Q04DX003 (ip), vehicle: saline 108 % of control and 109 % of control and 110 % of control | dose: 400.0 mg/kg/injection, schedule: Q04DX003 (ip), vehicle: saline 101 % of control and 102 % of control and 120 % of control

CCC1C(=O)OCC1Cc1cncn1C (configuration not stated)
inactive: dose: 50.0 mg/kg/injection, schedule: Q01DX005 (ip), vehicle: saline 100 % of control | dose: 100.0 mg/kg/injection, schedule: Q01DX005 (ip), vehicle: saline 94 % of control | dose: 200.0 mg/kg/injection, schedule: Q01DX005 (ip), vehicle: saline 98 % of control

O=C1/C(=C/c2ccc(/C=C3\CCc4ccccc4C3=O)cc2)CCc2ccccc21
inactive: dose: 50.0 mg/kg/injection, schedule: Q01DX009 (ip), vehicle: Klucel (hydroxypropylcellulose) (HPC) 102 % of control | dose: 100.0 mg/kg/injection, schedule: Q01DX009 (ip), vehicle: Klucel (hydroxypropylcellulose) (HPC) 99 % of control | dose: 200.0 mg/kg/injection, schedule: Q01DX009 (ip), vehicle: Klucel (hydroxypropylcellulose) (HPC) 101 % of control

CCOC(=O)Cn1/c(=N/N=C/c2ccc([N+](=O)[O-])o2)sc2cc(OC)ccc21
inactive: dose: 3.75 mg/kg/injection, schedule: Q01DX005 (ip), vehicle: saline with Tween-80 97 % of control | dose: 7.5 mg/kg/injection, schedule: Q01DX005 (ip), vehicle: saline with Tween-80 90 % of control | [4] 87 % of control | dose: 240.0 mg/kg/injection, schedule: Q01DX005 (ip), vehicle: Klucel (hydroxypropylcellulose) (HPC) 86 % of control
